Measurements: article PMC7013532, “Scenarios of Genes-to-Terpenoids Network Led to the Identification of a Novel α/β-Farnesene/β-Ocimene Synthase in Camellia sinensis” (International Journal of Molecular Sciences, 2020)

Target: TPS2 (Camellia sinensis, UniProt A0A3G3IRF8)
Assay: SPME GC-MS product analysis
Type: biochemical
Conditions: pH 7.5, 50 mM Tris-HCl, 10 mM MgCl2, 5 mM DTT, 30 °C

TPS2, sequence (A0A3G3IRF8 entry or part of it): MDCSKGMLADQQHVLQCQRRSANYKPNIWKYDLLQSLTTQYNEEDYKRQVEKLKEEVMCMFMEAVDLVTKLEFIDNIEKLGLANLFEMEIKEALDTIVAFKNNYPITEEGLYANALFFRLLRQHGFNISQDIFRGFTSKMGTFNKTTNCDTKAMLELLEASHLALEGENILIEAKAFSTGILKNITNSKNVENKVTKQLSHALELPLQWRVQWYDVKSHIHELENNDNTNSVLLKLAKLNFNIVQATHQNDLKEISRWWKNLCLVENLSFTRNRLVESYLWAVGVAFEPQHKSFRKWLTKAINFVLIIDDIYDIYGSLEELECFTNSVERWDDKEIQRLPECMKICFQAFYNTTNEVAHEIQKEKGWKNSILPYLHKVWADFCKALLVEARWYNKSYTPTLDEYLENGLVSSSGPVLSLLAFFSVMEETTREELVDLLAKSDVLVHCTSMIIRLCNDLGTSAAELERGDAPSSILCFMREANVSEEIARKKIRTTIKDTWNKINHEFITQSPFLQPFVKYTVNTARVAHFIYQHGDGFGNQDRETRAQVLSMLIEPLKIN

| SMILES | SPME GC-MS product analysis (products beta-farnesene (main) and alpha-farnesene) | SPME GC-MS product analysis (product beta-ocimene) |
| --- | --- | --- |
| CC(C)=CCC/C(C)=C/CC/C(C)=C/COP(=O)(O)OP(=O)(O)O [FPP] | The main product produced by TPS2 using FPP as a substrate was β-farnesene | – |
| CC(C)=CCC/C(C)=C/COP(=O)(O)OP(=O)(O)O [GPP] | – | β-ocimene is the resulting product when using GPP is used as the substrate |
